Assay results as given in US10233182B2, “Substituted spirocyclic inhibitors of autotaxin” (X-Rx, Inc., priority 2014, dated 2019).
pIC50: −log10 of the molar value.

These molecules were tested against Autotaxin (Homo sapiens (Human), UniProt Q13822) (assay: Autotaxin LPC Cascade Assay). Details: Autotaxin 5 nM, LPC 100 μM, choline oxidase/HRP/Ampliflu Red fluorescence read-out, 2% DMSO, RT; read-out: IC50 ATX Activity.
Type: biochemical
Experimental: Autotaxin LPC Cascade Assay:
HA130 and Test Compounds:
Prepare a 1 mM stock of HA130 and a 3 mM stock of each compound in 100% DMSO. Perform a 1:3 serial dilution in DMSO (transfer 5 l of compound to 10 l of DMSO). Add 240 l of buffer to generate a top working concentration of 40 µM (HA130) and 120 µM (test compound) in 4% DMSO.
Ampliflu Red—Prepare a stock of 5 mM from 100 mM in 100% DMSO. Further dilute to a working concentration of 400 μM in buffer (8% DMSO).
Together with compound this yields a 2% DMSO final concentration.
Choline Oxidase/HRP—0.8 U/mL CO and 8 U/mL HRP.
Incubate for 10 mins at RT. Add 5 µl of LPC and incubate for 1 hr on the plate shaker. Prepare the CO/HRP and AR immediately prior to use. Add 2.5 l of CO/HRP and follow with 2.5 l AR. Note order of addition, CO/HRP mix before AR. Read fluorescence intensity (ex/em: 530/590 nm) kinetically for 30 min at RT on the Tecan M1000.

SMILES	pIC50
CC(C)[C@@H](NC(=O)c1cc(C(F)(F)F)ccc1F)C(=O)N1CCC2(CC1)C(=O)N(C)C(=O)N2c1ccc2[nH]nnc2c1 [Example 32, (R)—N-(1-(1-(1H-Benzo[d][1,2,3]triazol-5-yl)-3-methyl-2,4-dioxo-1,3,8-triazaspiro [4.5]decan-8-yl)-3-methyl-1-oxobutan-2-yl)-2-fluoro-5-(trifluoromethyl)benzamide]	> 6.30
CC(C)[C@@H](NC(=O)c1cccc(C(F)(F)F)c1)C(=O)N1CCC2(CC1)C(=O)N(C)C(=O)N2c1ccccc1 [Example 33, (R)—N-(3-Methyl-1-(3-methyl-2,4-dioxo-1-phenyl-1,3,8-triazaspiro[4.5]decan-8-yl)-1-oxobutan-2-yl)-3-(trifluoromethyl)benzamide]	6.00 to 6.30
CCc1cccc(C(=O)N[C@@H](C(=O)N2CCC3(CC2)C(=O)N(C)C(=O)N3c2ccccc2)C(C)C)c1F [Example 34, (R)-3-Ethyl-2-fluoro-N-(3-methyl-1-(3-methyl-2,4-dioxo-1-phenyl-1,3,8-triazaspiro[4.5]decan-8-yl)-1-oxobutan-2-yl)benzamide]	≤ 6.00
CC(C)[C@@H](NC(=O)c1ccc(Cl)c(Cl)c1)C(=O)N1CCC2(CC1)C(=O)N(C)C(=O)N2c1ccccc1 [Example 35, (R)-3,4-Dichloro-N-(3-methyl-1-(3-methyl-2,4-dioxo-1-phenyl-1,3,8-triazaspiro[4.5]decan-8-yl)-1-oxobutan-2-yl)benzamide]	≤ 6.00
CC(C)[C@@H](NC(=O)c1cc(Cl)ccc1Cl)C(=O)N1CCC2(CC1)C(=O)N(C)C(=O)N2c1ccccc1 [Example 36, (R)-2,5-Dichloro-N-(3-methyl-1-(3-methyl-2,4-dioxo-1-phenyl-1,3,8-triazaspiro[4.5]decan-8-yl)-1-oxobutan-2-yl)benzamide]	≤ 6.00
CCc1ccc(F)c(C(=O)N[C@@H](C(=O)N2CCC3(CC2)C(=O)N(C)C(=O)N3c2ccccc2)[C@H](C)OC)c1 [Example 37, 5-Ethyl-2-fluoro-N-((2R,3S)-3-methoxy-1-(3-methyl-2,4-dioxo-1-phenyl-1,3,8-triazaspiro[4.5]decan-8-yl)-1-oxobutan-2-yl)benzamide]	> 6.30
CCc1cc(F)cc(C(=O)N[C@@H](C(=O)N2CCC3(CC2)C(=O)N(C)C(=O)N3c2ccccc2)[C@H](C)OC)c1 [Example 38, 3-Ethyl-5-fluoro-N-((2R,3S)-3-methoxy-1-(3-methyl-2,4-dioxo-1-phenyl-1,3,8-triazaspiro[4.5]decan-8-yl)-1-oxobutan-2-yl)benzamide]	≤ 6.00
CCc1ccc(F)c(C(=O)N[C@@H](C(=O)N2CCC3(CC2)C(=O)N(C)C(=O)N3c2ccccc2)C(C)C)c1 [Example 39, (R)-5-Ethyl-2-fluoro-N-(3-methyl-1-(3-methyl-2,4-dioxo-1-phenyl-1,3,8-triazaspiro[4.5]decan-8-yl)-1-oxobutan-2-yl)benzamide]	> 6.30
CCc1ccc(F)c(C(=O)N[C@@H](C(=O)N2CCC3(CC2)C(=O)N(C)C(=O)N3c2ccc(OC)cc2)[C@@H](C)OC)c1 [Example 40, 5-Ethyl-2-fluoro-N-((2R,3R)-3-methoxy-1-(1-(4-methoxyphenyl)-3-methyl-2,4-dioxo-1,3,8-triazaspiro[4.5]decan-8-yl)-1-oxobutan-2-yl)benzamide]	> 6.30
CC[C@@H](C)[C@@H](NC(=O)c1cc(C)cc(F)c1)C(=O)N1CCC2(CC1)C(=O)N(C)C(=O)N2c1ccc(OC)cc1 [Example 41, 3-Fluoro-N-((2R,3R)-1-(1-(4-methoxyphenyl)-3-methyl-2,4-dioxo-1,3,8-triazaspiro[4.5]decan-8-yl)-3-methyl-1-oxopentan-2-yl)-5-methylbenzamide]	> 6.30
CC(C)[C@@H](NC(=O)c1cc(C2CC2)ccc1F)C(=O)N1CCC2(CC1)C(=O)N(C)C(=O)N2c1ccccc1 [Example 42, (R)-5-Cyclopropyl-2-fluoro-N-(3-methyl-1-(3-methyl-2,4-dioxo-1-phenyl-1,3,8-triazaspiro[4.5]decan-8-yl)-1-oxobutan-2-yl)benzamide]	> 6.30
CC(C)[C@@H](NC(=O)c1cc(Cl)ccc1F)C(=O)N1CCC2(CC1)C(=O)N(C)C(=O)N2c1ccccc1 [Example 43, (R)-5-Chloro-2-fluoro-N-(3-methyl-1-(3-methyl-2,4-dioxo-1-phenyl-1,3,8-triazaspiro[4.5]decan-8-yl)-1-oxobutan-2-yl)benzamide]	> 6.30
CC(C)[C@@H](NC(=O)c1cc(C(F)(F)F)ccc1F)C(=O)N1CCC2(CC1)C(=O)N(C)C(=O)N2c1ccccc1 [Example 44, (R)-2-Fluoro-N-(3-methyl-1-(3-methyl-2,4-dioxo-1-phenyl-1,3,8-triazaspiro[4.5]decan-8-yl)-1-oxobutan-2-yl)-5-(trifluoromethyl)benzamide]	> 6.30
COc1ccc(N2C(=O)N(C)C(=O)C23CCN(C(=O)[C@H](NC(=O)c2cc(C4CC4)ccc2F)C(C)C)CC3)cc1 [Example 45, (R)-5-Cyclopropyl-2-fluoro-N-(1-(1-(4-methoxyphenyl)-3-methyl-2,4-dioxo-1,3,8-triazaspiro[4.5]decan-8-yl)-3-methyl-1-oxobutan-2-yl)benzamide]	> 6.30
CCc1cccc(C(=O)N[C@@H](C(=O)N2CCC3(CC2)C(=O)N(C)C(=O)N3c2ccccc2)C(C)C)c1 [Example 46, (R)-3-Ethyl-N-(3-methyl-1-(3-methyl-2,4-dioxo-1-phenyl-1,3,8-triazaspiro[4.5]decan-8-yl)-1-oxobutan-2-yl)benzamide]	6.00 to 6.30
CCc1cc(F)cc(C(=O)N[C@@H](C(=O)N2CCC3(CC2)C(=O)N(C)C(=O)N3c2ccccc2)C(C)C)c1 [Example 47, (R)-3-Ethyl-5-fluoro-N-(3-methyl-1-(3-methyl-2,4-dioxo-1-phenyl-1,3,8-triazaspiro[4.5]decan-8-yl)-1-oxobutan-2-yl)benzamide]	6.00 to 6.30
CC(C)[C@@H](NC(=O)c1cc(Cl)cc(Cl)c1)C(=O)N1CCC2(CC1)C(=O)N(C)C(=O)N2c1ccccc1 [Example 48, (R)-3,5-Dichloro-N-(3-methyl-1-(3-methyl-2,4-dioxo-1-phenyl-1,3,8-triazaspiro[4.5]decan-8-yl)-1-oxobutan-2-yl)benzamide]	> 6.30
COc1ccc(N2C(=O)N(C)C(=O)C23CCN(C(=O)[C@H](NC(=O)c2cc(C4CC4)ccc2F)[C@@H](C)OC)CC3)cc1 [Example 49, 5-Cyclopropyl-2-fluoro-N-((2R,3R)-3-methoxy-1-(1-(4-methoxyphenyl)-3-methyl-2,4-dioxo-1,3,8-triazaspiro[4.5]decan-8-yl)-1-oxobutan-2-yl)benzamide]	> 6.30
CCc1ccc(F)c(C(=O)N[C@@H](C(=O)N2CCC3(CC2)C(=O)N(C)C(=O)N3c2ccc(OC)cc2)C(C)C)c1 [Example 50, (R)-5-Ethyl-2-fluoro-N-(1-(1-(4-methoxyphenyl)-3-methyl-2,4-dioxo-1,3,8-triazaspiro[4.5]decan-8-yl)-3-methyl-1-oxobutan-2-yl)benzamide]	> 6.30
COc1ccc(N2C(=O)N(C)C(=O)C23CCN(C(=O)[C@H](NC(=O)c2cc(C(F)(F)F)ccc2F)C(C)C)CC3)cc1 [Example 51, (R)-2-Fluoro-N-(1-(1-(4-methoxyphenyl)-3-methyl-2,4-dioxo-1,3,8-triazaspiro[4.5]decan-8-yl)-3-methyl-1-oxobutan-2-yl)-5-(trifluoromethyl)benzamide]	> 6.30
CC(C)[C@@H](NC(=O)c1cc(C(F)(F)F)ccc1F)C(=O)N1CCC2(CC1)C(=O)N(C)C(=O)N2c1ccc2[nH]ncc2c1 [Example 52, (R)—N-(1-(1-(1H-indazol-5-yl)-3-methyl-2,4-dioxo-1,3,8-triazaspiro[4.5]decan-8-yl)-3-methyl-1-oxobutan-2-yl)-2-fluoro-5-(trifluoromethyl)benzamide]	> 6.30
CC(C)[C@@H](NC(=O)c1cc(C(F)(F)F)ccc1F)C(=O)N1CCC2(CC1)C(=O)N(C)C(=O)N2c1ccc2cn[nH]c2c1 [Example 53, (R)—N-(1-(1-(1H-Indazol-6-yl)-3-methyl-2,4-dioxo-1,3,8-triazaspiro[4.5]decan-8-yl)-3-methyl-1-oxobutan-2-yl)-2-fluoro-5-(trifluoromethyl)benzamide]	≤ 6.00
CC(C)[C@@H](NC(=O)c1cc(C2CC2)ccc1F)C(=O)N1CCC2(CC1)C(=O)N(C)C(=O)N2c1ccc2[nH]ncc2c1 [Example 54, (R)—N-(1-(1-(1H-Indazol-5-yl)-3-methyl-2,4-dioxo-1,3,8-triazaspiro[4.5]decan-8-yl)-3-methyl-1-oxobutan-2-yl)-5-cyclopropyl-2-fluorobenzamide]	> 6.30
CCc1ccc(F)c(C(=O)N[C@@H](C(=O)N2CCC3(CC2)C(=O)N(C)C(=O)N3c2ccc3[nH]ncc3c2)C(C)C)c1 [Example 55, (R)—N-(1-(1-(1H-Indazol-5-yl)-3-methyl-2,4-dioxo-1,3,8-triazaspiro[4.5]decan-8-yl)-3-methyl-1-oxobutan-2-yl)-5-ethyl-2-fluorobenzamide]	> 6.30
Cc1ccc(F)c(C(=O)N[C@@H](C(=O)N2CCC3(CC2)C(=O)N(C)C(=O)N3c2ccc3[nH]ncc3c2)C(C)C)c1 [Example 56, (R)—N-(1-(1-(1H-Indazol-5-yl)-3-methyl-2,4-dioxo-1,3,8-triazaspiro[4.5]decan-8-yl)-3-methyl-1-oxobutan-2-yl)-2-fluoro-5-methylbenzamide]	> 6.30
